Common to all, as to format: functional, cell-based
Test [1] concerns HL-60. The test is described as follows: Antiproliferative activity against HL60 after 24 hrs. As to conditions: Homo sapiens, HL-60, 24 h.
For test [2], the system named is HL-60. Briefly: Apoptotic activity in HL60 cells after 24 hrs. As to conditions: Homo sapiens, HL-60, 24 h.
In the next test the test system is PMN. Briefly: Cytotoxicity against human PMN cells at 100 uM.

The source made the active and inactive calls. The rule behind the calls is not given here.

Broadly, the IC50 is the concentration at which inhibition is half-maximal. The AC50 is the concentration giving half of the maximal activity seen.

`COc1cc(-c2cc(=O)c3c(OC)c(OC)c(OC)c(OC)c3o2)ccc1O` gave an IC50 with HL-60 [1] of 47.4 µM. The same compound returned an AC50 with HL-60 [2] of 87.1 µM. The result with PMN was inactive.

For `COc1ccc(-c2cc(=O)c3c(OC)c(OC)c(OC)c(OC)c3o2)cc1O`, it took 52.7 µM to reach half-maximal inhibition with HL-60 [1] (IC50). In the test with HL-60 [2], this compound gave an AC50 of 94.6 µM. Further, the result in the test with PMN was inactive.

On to `COc1ccc(-c2cc(=O)c3c(O)c(OC)c(OC)cc3o2)cc1OC`, for which the IC50 in the test on HL-60 [1] is above 100 µM. The AC50 in the test with HL-60 [2] was above 100 µM. In addition, the result in the test on PMN was inactive.

For `COc1ccc(-c2oc3c(OC)c(OC)c(OC)c(O)c3c(=O)c2OC)cc1OC`, the midpoint of inhibition with HL-60 [1], the IC50, lay at 4.16 µM. In addition, the activity with HL-60 [2] was half-maximal at 5.9 µM (AC50). The result with PMN was inactive.

For the compound `COc1c(OC)c(OC)c2c(=O)cc(-c3ccc(O)c(O)c3)oc2c1OC`, in the test on HL-60 [1], the IC50 is 71.2 µM. Besides, in the test with HL-60 [2], the AC50 was above 100 µM. Also, the outcome in the test on PMN was inactive.

Take `COc1ccc(-c2oc3c(OC)c(OC)c(OC)c(OC)c3c(=O)c2OC)cc1OC` [3,5,6,7,8,3',4'-HEPTAMETHOXYFLAVONE]: the midpoint of inhibition in the test with HL-60 [1], the IC50, lay at 13.3 µM. The half-maximal activity concentration (AC50) in the test on HL-60 [2] was found to be 33.9 µM. Besides, the outcome with PMN was inactive.

The compound `COc1ccc(-c2cc(=O)c3c(O)c(OC)c(OC)c(OC)c3o2)cc1OC` [5-DEMETHYLNOBILETIN] had an IC50 in the test on HL-60 [1] of 2.07 µM. In the test on HL-60 [2], this compound displayed an AC50 of 5.87 µM. The outcome in the test on PMN was inactive.

In turn, `COc1ccc(-c2oc3cc(OC)c(OC)c(O)c3c(=O)c2OC)cc1OC` [ARTEMETIN] displayed an IC50 in the test with HL-60 [1] of 6.44 µM. This compound returned an AC50 in the test with HL-60 [2] of 7.26 µM. Also, in the test on PMN, the result was inactive.

`COc1ccc(-c2cc(=O)c3c(O)c(OC)c(OC)c(OC)c3o2)cc1` [GARDENIN B]: the IC50 in the test with HL-60 [1] was above 100 µM. This compound also had an AC50 in the test with HL-60 [2] above 100 µM. Moreover, in the test with PMN, the result was inactive.

`COc1cc(-c2cc(=O)c3c(O)c(OC)c(OC)c(OC)c3o2)cc(OC)c1OC` [GARDENIN] yielded an IC50 in the test on HL-60 [1] above 100 µM. In the test with HL-60 [2], this compound displayed an AC50 above 100 µM. In addition, the outcome in the test on PMN was inactive.

`COc1ccc(-c2oc3cc(OC)c(OC)c(OC)c3c(=O)c2OC)cc1OC` [HEXAMETHOXYFLAVONE] gave an IC50 with HL-60 [1] of 20.6 µM. Besides, in the test with HL-60 [2], the activity was half-maximal at 92.1 µM (AC50). The outcome in the test with PMN was inactive.

In the test with HL-60 [1], `COc1ccc(-c2oc3c(OC)c(OC)c(OC)c(OC)c3c(=O)c2O)cc1OC` [NATSUDAIDAI] displayed an IC50 above 100 µM. In the test on HL-60 [2], this compound had an AC50 of 56.5 µM. Moreover, the outcome with PMN was inactive.

In the test with HL-60 [1], `COc1ccc(-c2cc(=O)c3c(OC)c(OC)c(OC)c(OC)c3o2)cc1OC` [NOBILETIN] showed an IC50 of 41.5 µM. In addition, the AC50 in the test on HL-60 [2] was above 100 µM. The result with PMN was inactive.

In turn, `COc1ccc(-c2cc(=O)c3c(OC)c(OC)c(OC)cc3o2)cc1OC` [SINENSETIN] yielded an IC50 in the test on HL-60 [1] above 100 µM. In the test with HL-60 [2], this compound yielded an AC50 above 100 µM. Besides, the outcome with PMN was inactive.

For the compound `COc1ccc(-c2cc(=O)c3c(OC)c(OC)c(OC)c(OC)c3o2)cc1` [TANGERETIN], the IC50 in the test on HL-60 [1] was above 100 µM. Further, the AC50 in the test on HL-60 [2] was above 100 µM. In addition, the outcome with PMN was inactive.

For the origin of these results see ChEMBL document CHEMBL1143042, “Isolation and syntheses of polymethoxyflavones and hydroxylated polymethoxyflavones as inhibitors of HL-60 cell lines” (Bioorg Med Chem, 2007).
